What was measured:
Format in all cases: in vivo, Wistar rats
[1] = tested on: STZ induced diabetic rats; assay: Study No 2: blood glucose in STZ induced diabetic rats (HCQ with vildagliptin and saxagliptin); conditions: for Plasma glucose concentration: oral
Procedure: In this experiment 96 Wistar rats weighing 150-200 g of either sex were divided randomly into 16 groups consisting of 6 rats each. The study drugs were dissolved in water/suspended in vehicle [0.1% w/v suspension of Tween 80 and carboxymethylcellulose (CMC) in water] and administered orally for 28 days. Group 1 (normal vehicle control) consisted of normal rats that neither received Streptozotocin (STZ) nor any test drug; Group 2 served as Streptozotocin induced diabetic control [Diabetes was induced in rats by single administration of Streptozotocin (55 mg/kg/i.p.) dissolved in 0.1 M-citrate buffer, pH 4.5]. Forty-eight hours later, blood samples were collected and glucose levels were determined to confirm the development of diabetes. Only animals showing hyperglycaemia (blood glucose levels>250 mg/dl) were considered as diabetic and received vehicle orally; Group 3 was diabetic rats treated with hydroxychloroquine (HCQ) (22.5 mg/kg); Group 4 was diabetic rats treated with HCQ (45 mg/kg), Group 5 was diabetic rats treated with vildagliptin (VG) 6 mg/kg; Group 6 was diabetic rats treated with VG 12 mg/kg; Group 7 was diabetic rats treated with HCQ 22.5 mg/kg+VG 12 mg/kg and Group 8 was diabetic rats treated with combination of HCQ 45 mg/kg and VG 6 mg/kg; Group 9 was diabetic rats treated with saxagliptin (SG) 0.3 mg/kg; Group 10 was diabetic rats treated with Saxagliptin (SG) 0.6 mg/kg; Group 11 was diabetic rats treated with combination of HCQ 45 mg/kg+SG 0.3 mg/kg; Group 12 was diabetic rats treated with combination of HCQ 22.5 mg/kg+SG 0.6 mg/kg; Group 13 was diabetic rats treated with combination of HCQ 22.5 mg/kg and VG 6 mg/kg; Group 14 was diabetic rats treated with combination of HCQ 45 mg/kg and VG 12 mg/kg; Group 15 was diabetic rats treated with combination of HCQ 22.5 mg/kg+SG 0.3 mg/kg; Group 16 was diabetic rats treated with combination of HCQ 45 mg/kg+SG 0.6 mg/kg.
Blood glucose level was measured in normal and experimental rats at 0, 7th, 14th, 21st and 28th day of administration.

[2] = tested on: STZ-induced diabetic rats; assay: Study No 2: biochemical parameters in STZ-induced diabetic rats; conditions: for Creatinine / HbA1c / Total Protein / Urea: after 28 days, oral
[3] = tested on: STZ-induced diabetic rats; assay: Study No 2: body weight, water intake and food intake in STZ-induced diabetic rats; conditions: for AVERAGE FOOD INTAKE / AVERAGE WATER INTAKE / Body Weight: oral
[4] = Day 0, HCQ 22.5, VG 6, SG 0.3 mg/kg alone, HCQ+VG 22.5+6, HCQ+SG 22.5+0.3 mg/kg
[5] = Day 0, HCQ 45, VG 12, SG 0.6 mg/kg alone, HCQ+VG 45+12, HCQ+SG 45+0.6 mg/kg
[6] = Day 7, HCQ 22.5, VG 6, SG 0.3 mg/kg alone, HCQ+VG 22.5+6, HCQ+SG 22.5+0.3 mg/kg
[7] = Day 7, HCQ 45, VG 12, SG 0.6 mg/kg alone, HCQ+VG 45+12, HCQ+SG 45+0.6 mg/kg
[8] = Day 14, HCQ 22.5, VG 6, SG 0.3 mg/kg alone, HCQ+VG 22.5+6, HCQ+SG 22.5+0.3 mg/kg
[9] = Day 14, HCQ 45, VG 12, SG 0.6 mg/kg alone, HCQ+VG 45+12, HCQ+SG 45+0.6 mg/kg
[10] = Day 21, HCQ 22.5, VG 6, SG 0.3 mg/kg alone, HCQ+VG 22.5+6, HCQ+SG 22.5+0.3 mg/kg
[11] = Day 21, HCQ 45, VG 12, SG 0.6 mg/kg alone, HCQ+VG 45+12, HCQ+SG 45+0.6 mg/kg
[12] = Day 28, HCQ 22.5, VG 6, SG 0.3 mg/kg alone, HCQ+VG 22.5+6, HCQ+SG 22.5+0.3 mg/kg
[13] = Day 28, HCQ 45, VG 12, SG 0.6 mg/kg alone, HCQ+VG 45+12, HCQ+SG 45+0.6 mg/kg
[14] = HCQ 22.5, VG 6, SG 0.3 mg/kg alone, HCQ+VG 22.5+6, HCQ+SG 22.5+0.3 mg/kg/day
[15] = HCQ 45, VG 12, SG 0.6 mg/kg alone, HCQ+VG 45+12, HCQ+SG 45+0.6 mg/kg/day
[16] = Day 0, HCQ 22.5, VG 6, SG 0.3 mg/kg alone, HCQ+VG 22.5+6, HCQ+SG 22.5+0.3 mg/kg/day
[17] = Day 0, HCQ 45, VG 12, SG 0.6 mg/kg alone, HCQ+VG 45+12, HCQ+SG 45+0.6 mg/kg/day
[18] = Day 7, HCQ 22.5, VG 6, SG 0.3 mg/kg alone, HCQ+VG 22.5+6, HCQ+SG 22.5+0.3 mg/kg/day
[19] = Day 7, HCQ 45, VG 12, SG 0.6 mg/kg alone, HCQ+VG 45+12, HCQ+SG 45+0.6 mg/kg/day
[20] = Day 14, HCQ 22.5, VG 6, SG 0.3 mg/kg alone, HCQ+VG 22.5+6, HCQ+SG 22.5+0.3 mg/kg/day
[21] = Day 14, HCQ 45, VG 12, SG 0.6 mg/kg alone, HCQ+VG 45+12, HCQ+SG 45+0.6 mg/kg/day
[22] = Day 21, HCQ 22.5, VG 6, SG 0.3 mg/kg alone, HCQ+VG 22.5+6, HCQ+SG 22.5+0.3 mg/kg/day
[23] = Day 21, HCQ 45, VG 12, SG 0.6 mg/kg alone, HCQ+VG 45+12, HCQ+SG 45+0.6 mg/kg/day
[24] = Day 28, HCQ 22.5, VG 6, SG 0.3 mg/kg alone, HCQ+VG 22.5+6, HCQ+SG 22.5+0.3 mg/kg/day
[25] = Day 28, HCQ 45, VG 12, SG 0.6 mg/kg alone, HCQ+VG 45+12, HCQ+SG 45+0.6 mg/kg/day
[26] = monotherapies, all the tested dose levels except HCQ (22.5 mg/kg), p≦0.05

N#C[C@@H]1C[C@@H]2C[C@@H]2N1C(=O)[C@@H](N)C12CC3CC(CC(O)(C3)C1)C2 [SG, Saxagliptin]
Plasma glucose concentration [1, 4]: 288.83 ± 26.19 mg/dL | Plasma glucose concentration [1, 5]: 285.5 ± 33.58 mg/dL | Plasma glucose concentration [1, 6]: 246.5 ± 4.89 mg/dL | Plasma glucose concentration [1, 7]: 146.5 ± 4.89 mg/dL | Plasma glucose concentration [1, 8]: 226.33 ± 12.36 mg/dL | Plasma glucose concentration [1, 9]: 138.5 ± 7.23 mg/dL | Plasma glucose concentration [1, 10]: 194 ± 38.79 mg/dL | Plasma glucose concentration [1, 11]: 137.5 ± 9.44 mg/dL | Plasma glucose concentration [1, 12]: 194.17 ± 17.17 mg/dL | Plasma glucose concentration [1, 13]: 161 ± 9.67 mg/dL | Creatinine [2, 14]: 1.89 ± 0.23 mg/dL | HbA1c [2, 14]: 10.79 ± 1.05 % | Total Protein [2, 14]: 6.55 ± 0.37 gm/dl | Urea [2, 14]: 22.74 ± 2.71 mg/dL | Creatinine [2, 15]: 1.81 ± 0.27 mg/dL | HbA1c [2, 15]: 9.65 ± 1.51 % | Total Protein [2, 15]: 6.62 ± 0.49 gm/dl | Urea [2, 15]: 21.26 ± 2.41 mg/dL | AVERAGE FOOD INTAKE [3, 16]: 12.13 g | AVERAGE WATER INTAKE [3, 16]: 23.71 mL | Body Weight [3, 16]: 208.33 ± 6.15 g | AVERAGE FOOD INTAKE [3, 17]: 12.45 g | AVERAGE WATER INTAKE [3, 17]: 24.86 mL | Body Weight [3, 17]: 211 ± 7.38 g | AVERAGE FOOD INTAKE [3, 18]: 14.00 g | AVERAGE WATER INTAKE [3, 18]: 21.12 mL | Body Weight [3, 18]: 199.5 ± 7.69 g | AVERAGE FOOD INTAKE [3, 19]: 14.45 g | AVERAGE WATER INTAKE [3, 19]: 21.11 mL | Body Weight [3, 19]: 203.17 ± 7.47 g | AVERAGE FOOD INTAKE [3, 20]: 12.54 g | AVERAGE WATER INTAKE [3, 20]: 21.67 mL | Body Weight [3, 20]: 197.83 ± 8.06 g | AVERAGE FOOD INTAKE [3, 21]: 12.00 g | AVERAGE WATER INTAKE [3, 21]: 21.89 mL | Body Weight [3, 21]: 201.17 ± 8.52 g | AVERAGE FOOD INTAKE [3, 22]: 13.05 g | AVERAGE WATER INTAKE [3, 22]: 25.17 mL | Body Weight [3, 22]: 196.33 ± 8.36 g | AVERAGE FOOD INTAKE [3, 23]: 13.26 g | AVERAGE WATER INTAKE [3, 23]: 26.00 mL | Body Weight [3, 23]: 199.83 ± 8.35 g | AVERAGE FOOD INTAKE [3, 24]: 14.25 g | AVERAGE WATER INTAKE [3, 24]: 25.19 mL | Body Weight [3, 24]: 193.83 ± 8.13 g | AVERAGE FOOD INTAKE [3, 25]: 14.00 g | AVERAGE WATER INTAKE [3, 25]: 25.12 mL | Body Weight [3, 25]: 198 ± 8.74 g

N#C[C@@H]1CCCN1C(=O)CNC12CC3CC(CC(O)(C3)C1)C2 [VG, Vildagliptin]
Plasma glucose concentration [1, 4]: 296 ± 21.59 mg/dL | Plasma glucose concentration [1, 5]: 288 ± 11.58 mg/dL | Plasma glucose concentration [1, 6]: 242.17 ± 40.58 mg/dL | Plasma glucose concentration [1, 7]: 227 ± 40.57 mg/dL | Plasma glucose concentration [1, 8]: 199.83 ± 35.33 mg/dL | Plasma glucose concentration [1, 9]: 188.83 ± 34.23 mg/dL | Plasma glucose concentration [1, 10]: 191.33 ± 22.46 mg/dL | Plasma glucose concentration [1, 11]: 173.5 ± 15.6 mg/dL | Plasma glucose concentration [1, 12]: 182.67 ± 33.01 mg/dL | Plasma glucose concentration [1, 13]: 167.5 ± 9.12 mg/dL | blood glucose levels as compared to diabetic control group ([1]; alone at therapeutic equivalent doses, day 28): significant improvement | Creatinine [2, 14]: 1.78 ± 0.14 mg/dL | HbA1c [2, 14]: 10.76 ± 0.97 % | Total Protein [2, 14]: 7.08 ± 0.55 gm/dl | Urea [2, 14]: 21.48 ± 4.35 mg/dL | Creatinine [2, 15]: 1.69 ± 0.21 mg/dL | HbA1c [2, 15]: 9.97 ± 0.95 % | Total Protein [2, 15]: 7.15 ± 0.19 gm/dl | Urea [2, 15]: 20.23 ± 1.89 mg/dL | HbA1c levels as compared to diabetic control ([2]; all tested doses, 28 days, p≦0.05): significantly (p≦0.05) reduced | total protein level as compared to the diabetic control group ([2]; monotherapies at all doses, 28 days, p≦0.05): significant rise | creatinine levels as compared to diabetic control group [2, 26]: significant reduction | urea levels as compared to diabetic control group [2, 26]: significant reduction | AVERAGE FOOD INTAKE [3, 16]: 11.40 g | AVERAGE WATER INTAKE [3, 16]: 25.00 mL | Body Weight [3, 16]: 195 ± 7.18 g | AVERAGE FOOD INTAKE [3, 17]: 11.90 g | AVERAGE WATER INTAKE [3, 17]: 24.35 mL | Body Weight [3, 17]: 197.5 ± 6.35 g | AVERAGE FOOD INTAKE [3, 18]: 13.00 g | AVERAGE WATER INTAKE [3, 18]: 22.12 mL | Body Weight [3, 18]: 179.17 ± 11.27 g | AVERAGE FOOD INTAKE [3, 19]: 13.50 g | AVERAGE WATER INTAKE [3, 19]: 22.19 mL | Body Weight [3, 19]: 189 ± 3.52 g | AVERAGE FOOD INTAKE [3, 20]: 12.10 g | AVERAGE WATER INTAKE [3, 20]: 21.32 mL | Body Weight [3, 20]: 182.83 ± 12.66 g | AVERAGE FOOD INTAKE [3, 21]: 12.00 g | AVERAGE WATER INTAKE [3, 21]: 22.11 mL | Body Weight [3, 21]: 187.67 ± 6.38 g | AVERAGE FOOD INTAKE [3, 22]: 12.90 g | AVERAGE WATER INTAKE [3, 22]: 25.12 mL | Body Weight [3, 22]: 185.67 ± 11.86 g | AVERAGE FOOD INTAKE [3, 23]: 13.05 g | AVERAGE WATER INTAKE [3, 23]: 26.13 mL | Body Weight [3, 23]: 186.5 ± 8.83 g | AVERAGE FOOD INTAKE [3, 24]: 14.33 g | AVERAGE WATER INTAKE [3, 24]: 26.31 mL | Body Weight [3, 24]: 189.5 ± 11.81 g | AVERAGE FOOD INTAKE [3, 25]: 14.30 g | AVERAGE WATER INTAKE [3, 25]: 25.71 mL | Body Weight [3, 25]: 185.67 ± 11.69 g | body weight as compared to diabetic control group ([3]; monotherapies, p≦0.05): reduction was significantly less

— patent publication US20140128402A1, “PHARMACEUTICAL COMBINATION” (IPCA Laboratories Limited, priority 2011, published 2014)
